Measurements from US10130638B2, “Prevention of adverse effects caused by CD3 specific binding domains” (AMGEN RESEARCH (MUNICH) GMBH, priority 2010, dated 2018).
“Also recorded” adds a separate entry of the source.

Assays:
[1] = cited from earlier work
DLBCL patients = test: Phase I trial in DLBCL patients: glucocorticoid cohorts, dose-limiting toxicities (DLT); format: in vivo, human; conditions: for Safety assessment of cohort: DLBCL cohorts, antibody 5/15/60 μg/m2/d with glucocorticoid medication
Description: A Phase I clinical trial was performed in patients with various B-NHL including DLBCL to evaluate the CD19×CD3 bispecific antibody construct in DLBCL patients. Patients were treated for 4-8-weeks by continuous i.v. administration of the antibody with the following step-wise dosing regimen: first week at 5 μg/m^2/d, second week at 15 μg/m^2/d and for the remaining treatment period at 60 μg/m^2/d.
Two cohorts each with 6 DLBCL patients were enrolled. The two cohorts solely differed by the dose and schedule of the glucocorticoid medication administered at the beginning of the antibody infusion for mitigation of adverse events.
Out of the twelve patients, 5 were male and 7 female. The median age was 57 years (range from 24 to 78 years). Patients had received a median of 4 prior regimens (range from 2-6). All patients had been exposed to rituximab. Eight of the 12 patients had undergone ASCT. International prognostic index (IPI) at screening ranged from 1 to 3 with a median of 2.

[2] = test system: patients treated with blinatumomab; test: Dexamethasone prophylaxis to prevent neurological adverse events during blinatumomab treatment; format: in vivo, human; conditions: Patient 108-010, trial 103-104, DLBCL; as other patients (20 mg dexamethasone 12 h and 1 h before) plus 100 mg prednisolone one hour before start of infusion
Description: Besides the therapeutic use of dexamethasone to mitigate neurological adverse events, dexamethasone was also used as prophylaxis in order to prevent neurological adverse events.
(§1) Each of the following 5 patients in trial 103-104 (all with DLBCL) were treated with blinatumomab continuous infusion at 5 μg/m2/d for the 1st week, then 15 μg/m2/d for the 2nd week, and then 60 μg/m2/d for the remaining treatment period that could an additional 2-6 weeks.

[3] = test system: malignant CD19 positive lymphocytes; test: Tumour response to blinatumomab in patients given dexamethasone prophylaxis; format: in vivo, human
Source text: By “complete response” is intended an absence of clinically detectable disease with normalization of any previously abnormal imaging studies such as radiographic studies. Such a response preferably persists for at least 4 to 8 weeks, sometimes 6 to 8 weeks or more than 8, 10, 12, 14, 16, 18 or 20 weeks or longer, following treatment according to the invention. Alternatively, an improvement in the disease may be categorized as being a partial response.
Detailed remission and response definitions for NHL patients are used according to Cheson et al., 1999, J Clin Oncol. April; 17(4):1244
By “partial response” is intended at least about a 50% decrease in all measurable tumor burden (i.e., the number of malignant cells present in the patient, or the measured bulk of tumor masses) in the absence of new lesions and persisting for 4 to 8 weeks or more than 8, 10, 12, 14, 16, 18 or 20 weeks or longer. A “complete response” does, however, not necessarily indicate that a disease has been cured, since a patient may relapse. However, if so, the patient can again be treated with a composition comprising a CD19×CD3 bispecific antibody as described herein.
as §1

[4] = test system: patients with B cell malignancies; conditions: cited from earlier work
lymphoma target cells = conditions: cited from earlier work
patients with B-NHL = test: Neurological/psychiatric adverse events under blinatumomab continuous infusion; format: in vivo, human
Description: For the clinical trials in connection with the application of a CD19×CD3 bispecific single chain antibody for the treatment of tumorous mass of lymph node tissue and/or extranodal lymphoma caused by DLBCL, the present inventors had to develop a treatment regime which was efficient and would be well tolerated by most of the patients. To this end, the present inventors applied a step-wise application of a CD19×CD3 bispecific single chain antibody in that 5/15/60 μg/m^2/24 h was administered to patients. […] Also contemplated in the step-wise administration of a CD19×CD3 bispecific single chain antibody is a treatment regime using two of the dosages, such as 5/15 μg/m^2/24 h, 5/60 μg/m^2/24 h, or 15/60 μg/m^2/24 h for the duration of the patient's treatment. The appropriate dosage can be selected by the clinician on the basis of efficacy, tolerability and safety with a minimum of adverse effects in the patient.

[5] = non-Hodgkin's lymphoma patients

## C[C@H]1C[C@@H]2[C@H]([C@@H](O)C[C@@]3(C)[C@H]2CC[C@]3(O)C(=O)CO)[C@@]2(C)C=CC(=O)C=C12 [Methylprednisolone]
[1]
  Biologic half-life: 18-36 hrs

## C[C@@H]1C[C@H]2[C@@H]3CCC4=CC(=O)C=C[C@]4(C)[C@@]3(F)[C@@H](O)C[C@]2(C)[C@@]1(O)C(=O)CO [Dexamethasone]
DLBCL patients
  Safety assessment of cohort: considered safe
DLBCL patients; prophylactic dexamethasone cohort: 3×8 mg at start of infusion or dose increase, 3×6 mg or 3×4 mg on following 2 days, first two patients
  DLT: one of the first two patients having a DLT
DLBCL patients; “early dexamethasone” schedule: 20 mg at −12 to −6 hours and −1 hour, 3×8 mg during following 2 days, total of 5 DLBCL patients
  DLT: no DLT was observed

## C[C@]12C=CC(=O)C=C1CC[C@@H]1[C@@H]2[C@@H](O)C[C@@]2(C)[C@H]1CC[C@]2(O)C(=O)CO [Prednisolone]
[2]
  Discontinuation due to neurological/psychiatric adverse events: did not have to discontinue
DLBCL patients
  Safety assessment of cohort: considered safe
DLBCL patients; prednisolone DLBCL cohort: 100 mg prednisolone 1 hour prior to start, antibody 5/15/60 μg/m2/d
  DLT: just one DLT (reversible CNS event grade 3)
[1]
  Biologic half-life: 18-36 hrs

## Blinatumomab
[3]; DLBCL patients with “early dexamethasone” schedule, Phase I
  Tumour response: objective responses have been observed
[3]; Patient 155-001, relapsed ALL, blinatumomab 15 μg/m2/d 16 days, dexamethasone prophylaxis 8 mg
  Tumour response: complete remission
[3]; patient with ALL, blinatumomab 15 μg/m2/d, dexamethasone prophylaxis days 1-3
  Tumour response: complete remission
[3]; trial 103-104, DLBCL, blinatumomab 5/15/60 μg/m2/d, 20 mg dexamethasone prophylaxis, one patient per block
  Tumour response of the lymphoma: objective response; also recorded: complete remission
[4]; escalating doses as bolus infusions, B cell malignancies, retrospective analysis
  Patients with early neurological reaction (confusion, ataxia, speech disorder, disorientation): 7 out of 22
[4]; patient with B-CLL, 20 minute-infusions of 3 and 10 microgram, WO 99/54440
  Cytokine release: release of TNF, IL-6 and IL-8 has been found
Lymphoma target cells; continuously administered over four weeks, non-Hodgkin's lymphoma patients
  Dose leading to elimination of lymphoma target cells in blood (doses as low as): 0.005 milligrams per square meter per day
Lymphoma target cells; dose level 0.06 milligrams/m^2/d
  Patients with tumor regression: all seven patients
Lymphoma target cells; [5]
  Dose level at which partial and complete tumor regressions were first observed: 0.015 milligrams/m^2/d
  Tumor cells in bone marrow and liver: clearance of tumor cells from bone marrow and liver
Patients with B-NHL; DLBCL patients, step-wise 5/15/60 μg/m2/24 h
  Adverse effects, in particular neurological/psychiatric events, with step-wise application: reduced in number, ameliorated and even prevented
Patients with B-NHL; Patient 109-036, follicular lymphoma, starting day 11, four days after step from 5 to 60 μg/m2/d
  Neurological adverse events: neurological adverse events (tremor and apraxia)
Patients with B-NHL; Patient 109-038, DLBCL, 5/15/60 μg/m2/d, day 15
  Neurological adverse events: developed intention tremor
Patients with B-NHL; Patient 109-039, MCL, 5/15/60 μg/m2/d, day 17
  Neurological adverse events: developed tremor and slight speech disturbance
Patients with B-NHL; Patient 135-001, DLBCL, day 4 after step to 60 μg/m2/d, too fast to intervene with dexamethasone
  Treatment stop due to neurological/psychiatric adverse events: had to stop due to neurological/psychiatric adverse events
Patients with B-NHL; Patient 153-002, MCL, 5/15/60 μg/m2/d, day 4
  Neurological adverse events: developed slight speech problems
Patients with B-NHL; Patient 153-002, MCL, day 22, paresis disappeared without intervention
  Treatment stop due to neurological adverse event: had to stop treatment due to paresis

## C[C@]12C=CC(=O)C=C1CC[C@@H]1[C@@H]2C(=O)C[C@@]2(C)[C@H]1CC[C@]2(O)C(=O)CO [Prednisone]
[1]
  Biologic half-life: 18-36 hrs

## C[C@]12CCC(=O)C=C1CC[C@@H]1[C@@H]2[C@@H](O)C[C@@]2(C)[C@H]1CC[C@]2(O)C(=O)CO [Hydrocortisone]
[1]
  Biologic half-life: 8-12 hrs
